Data taken from US20220233523A1, “ANTIBIOTIC POTENTIATION FOR NONTUBERCULOUS MYCOBACTERIAL DISEASE” (priority 2019, published 2022).
Where “and” joins values, the source holds several entries; their conditions need not be identical. Equal values may be shown once. Marks after values point to notes of the source that are not given here.

Experiments:
MAH104 biofilms = format: cell-based, Mycobacterium avium subsp hominissuis 104 (MAH104); details: for lower capacity of biofilms to use the substrate compared with planktonic cultures: O.D.590 nm, biofilm vs planktonic; for metabolized by biofilm cultures: Biolog PM1/PM2A plates; for Biofilm (metabolite used): Biolog PM1/PM2A substrates, 7 days at 37° C., end-point assay
Method: (§1) Metabolic phenotype study was performed with planktonic and biofilm cultures using the 96-well plates PM1 and PM2A (BIOLOG™, Hayward, Calif.). The assays with planktonic cells and biofilms were made at the same time. Each plate contains carbon substrates and one negative control well, in which the bacteria is tested without any substrate. The tests with planktonic and biofilm cultures were performed at the same time and the culture inoculum have the same number of passages. […] The experiments were made as an end-point assay.
The cultures of biofilms were established for 7 days in regular polystyrene 96 well plates, not in PM Biolog plates, as described above with a minor difference. […] (total of 14 days of biofilm incubated at 37° C.). To obtain spectrophotometric measurements from biofilm cultures (O.D.590 nm), the plate was centrifuged for 20 minutes at 3500 rpm at 20° C., which reduce bacteria interference with the readings, and biofilm supernatant was transferred to a new 96 well plates for O.D.590 nm measurement.
(§2) Experiments were performed three times as an end-point assay. If planktonic and/or biofilm cultures were able to metabolize a specific metabolite substrate, electrons from NADH reduce the Redox dye in an irreversible reaction that generates a purple color in the PM plate wells. The signal (+) and (−) indicates, respectively, whether a purple color was produced or not. Abiotic reductions of the Redox dye were assessed through adding bacteria-free GN/GP-IF-0a fluid in the wells. Negative control corresponds to the wells without any metabolic substrate.

[1] = system: MAH (strain 104) in established biofilms; assay: Treatment of established MAH biofilms with antibiotics and metabolites (CFU); format: cell-based, Mycobacterium avium subsp hominissuis 104 (MAH104); details: for numbers of bacteria in biofilms / CFU/ml at 14 days: established biofilms; for numbers of bacteria in biofilms: antibiotic alone or co-treatment; for CFU/ml at 14 days: clarithromycin 16 μg/ml, amikacin 4 μg/ml, 0.05% propionic or butyric acid, 0.2% glycerol, none 4.2 +/− 0.5 × 10^8
Method: To assess the antibiotic tolerance of MAH biofilms to amikacin (4 μg/ml) and clarithromycin (16 μg/ml), biofilms were formed for 14 days as described herein. […] As a negative control, biofilms were incubated only with non-supplemented 7H9 without any antibiotics. […] Subsequently, 100 μl of 0.02% of Triton X-100 (final concentration 0.01%) was added to the established biofilms to mix, dilute and perform CFU analysis with the entire population of biofilms (attached and unattached).
Mycobacteria biofilms were first established and then treated or not treated with antibiotics. In parallel, biofilms were also co-treated with antibiotics and the targeted metabolites.

[2] = system: intracellular MAH 104 in THP-1 macrophages; assay: Treatment of MAH inside human THP-1 macrophages with antibiotics and metabolites (CFU); format: cell-based, Mycobacterium avium subsp hominissuis 104 (MAH104); details: for CFU/ml of macrophage lysate, 2 h: 2 h (baseline); for CFU/ml of macrophage lysate, 4 days: clarithromycin 16 μg/ml, amikacin 4 μg/ml, none 8.2 +/− 0.3 × 10^5
Method: Human THP-1 cell line (TIB-202) (American Type Culture Collection, Manassas, Va.) was cultivated in RPMI-1640 medium with 10% of heat-inactivated fetal bovine serum (FBS, GEMINI B10-PRODUCTS, Sacramento, Calif.), at 37° C. with 5% CO2. The THP-1 cells were maintained in 75 cm^2 tissue culture flasks. The differentiation of THP-1 monocytes into macrophages with PMA (phorbol 12-myristate 13-acetate) (SIGMA ALDRICH) and intracellular antibiotic killing assays were performed as previously described (Rojony et al., Clinical proteomics 2019; 16:39). […] As a negative control, differentiated THP-1 cells were incubated without any antibiotics and with no metabolites. THP-1 cells were replenished with new media containing antibiotics, or no antibiotic, every other day. Cells were lysed at 2 h (baseline) and day 4 and subsequently the number of viable bacteria was determined by CFU counting on 7H10 agar plates.

MAH 3388 biofilm = assay: Amikacin with short-chain fatty acids on biofilm of lung isolate MAH 3388; format: cell-based; details: amikacin concentration: 4 mg/ml; untreated 9.4 +/− 0.2 × 10^7
Method: As a negative control, biofilms were incubated only with non-supplemented 7H9 without any antibiotics. […] Subsequently, 100 μl of 0.02% of Triton X-100 (final concentration 0.01%) was added to the established biofilms to mix, dilute and perform CFU analysis with the entire population of biofilms (attached and unattached).
Biofilms were established from an MAH strain isolated from the lungs of a patient (MAH 3388).

MAH 3393 biofilm = assay: Amikacin with short-chain fatty acids on biofilm of lung isolate MAH 3393; format: cell-based; details: amikacin concentration: 4 mg/ml; untreated 1.0 +/− 0.8 × 10^8
sessile MAH104 cells = assay: Growth and biofilm formation of pre-attached (sessile) cells in nutrient-limited media; format: cell-based, Mycobacterium avium subsp hominissuis 104 (MAH104); details: 0.05% fatty acids in non-supplemented 7H9, 7 days; blank 0.091±0.007
Method: (§3) Assays with biofilms incubated with propionic acid, butyric acid, and glycerol were performed to test whether these metabolites affect the formation of biofilms. All the experiments were made in non-supplemented 7H9. The effect of these metabolites was evaluated during biofilm formation, in pre-established biofilms and in M. avium cells pre-attached to polystyrene. To evaluate the effect of targeted metabolites during biofilm formation, mycobacteria suspensions were prepared and inoculated in 96 wells polystyrene plates, as already described, and biofilms were formed in the presence or not of the short-chain fatty acids at different concentrations (1%, 0.5%, 0.1%, 0.05% and 0.01%). For glycerol, only 0.2% was used. The biofilms were formed in 7H9 media at 37° C. for 7 days. For pre-established biofilms, MAH104 was again inoculated in 96 wells plates and biofilms were formed as described herein. […] It was also evaluated whether these metabolites could promote the growth of MAH104 cells present in biofilms through the measurement of […] every 24 hours. Finally, mycobacteria suspension with low density made in 7H9 broth (containing 1×10^6 bacteria/ml) were seeded in 96 wells polystyrene plates and incubated for 7 days at 37° C. […] The growth of pre-attached bacterial cells was followed every 24 hours through O.D.595 nm. The biofilm formation was evaluated by crystal violet.
Low mycobacterial cells density (10^6/ml) resuspended in non-supplemented 7H9 media were inoculated in 96-well plates and incubated for 7 days at 37° C. to allow the bacteria to attach into polystyrene. The supernatant was discarded to remove planktonic cells and pre-attached bacterium was incubated for 7 days in nutrient-limited media (non-supplemented 7H9). […] The growth of sessile mycobacteria was followed by O.D.595 nm measurement and biofilm formation was determined through crystal violet (O.D.570 nm), since the multiplication of bacteria cells is linked with the formation of biofilms. No growth was observed when sessile MAH104 cells were cultivated in non-supplemented 7H9 broth. […] It is also important to highlight that the O.D.570 nm value for sessile MAH104 forms incubated with non-supplemented 7H9 (O.D.570 nm=0.11±0.039) had no significant difference in comparison with the blank (O.D.570 nm=0.091±0.007) (P=0.37), showing no biofilm formation. […] FIG. 3A-D.

[3] = system: M. avium 104 static biofilms; assay: Static biofilm formation in the presence of metabolites (crystal violet); format: cell-based, Mycobacterium avium subsp hominissuis 104 (MAH104); details: 1% and 0.5%, 7H9, 7 days at 37° C., crystal violet
Method: Static biofilms were used in the present study as described previously (Rose S J, Bermudez L E., Infection and Immunity 2014; 82:405-12). Briefly, mycobacteria were taken from 7H10 agar plates and resuspended in deionized water (10^9 of colony forming units/ml; CFU/ml). The bacterial suspension was then washed 3 times with deionized water to remove any remaining of 7H10 media (3500 rpm for 20 minutes at 20° C.). After washing, the MAH104 were resuspended in 7H9 medium without any carbon sources (OADC, glycerol, tween 20 and tween 80) (non-supplemented 7H9) and suspensions were left alone to allow clumped bacteria to settle. The top half of the suspension was transferred to new tube and adjusted to 1×10^8 CFU/ml, using visual turbidity and optical density. Suspensions were inoculated in 96-well polystyrene plates (BD, Franklin Lakes, N.J.) (100 μl for each well [or 10^7 bacteria per well]) and biofilms were formed at 37° C. for 7 days or for 14 days when indicated. […] The raw O.D. at 570 nm values were discounted from O.D. 570 nm average of blank wells (wells with only 7H9 media).
as §3
The next step was to evaluate the capacity of tested substrates to promote the growth of mycobacteria cells that are present in biofilms. […] MAH 104 cells in the presence of non-supplemented 7H9 were used as a negative control. […]

[4] = system: planktonic MAH104 cultures; format: cell-based, Mycobacterium avium subsp hominissuis 104 (MAH104); details: for Planktonic (metabolite used): Biolog PM1/PM2A plates, 7 days at 37° C., end-point assay
Method: as §1
To prepare the inoculum of planktonic cells for PM plates, MAH104 was cultivated in 7H9 medium with 10% OADC and 0.05% of tween20. After the cells reached a mid-logarithmic phase (O.D. at 595 nm=0.3 to 0.6), the cultures were harvested and washed three times with deionized water (centrifugation conditions; 3500 rpm for 20 minutes at 20° C.) and incubated in water for 24 hours at 25° C. as a starvation step. […] A volume of 100 μl of this final bacteria suspension was inoculated into the wells of PM1 and PM2A plates. These plates were incubated for 7 days at 37° C. and after the incubation the O.D. at 590 nm of the plates were measured.
as §2

[5] = cited from earlier work

CC(=O)O [Acetic Acid]
lower capacity of biofilms to use the substrate compared with planktonic cultures (MAH104 biofilms): 2.55 fold

CC(=O)CC(=O)O [Acetoacetic acid]
metabolized by biofilm cultures (MAH104 biofilms): unable to metabolize

NCC[C@H](O)C(=O)N[C@@H]1C[C@H](N)[C@@H](O[C@H]2O[C@H](CN)[C@@H](O)[C@H](O)[C@H]2O)[C@H](O)[C@H]1O[C@H]1O[C@H](CO)[C@@H](O)[C@H](N)[C@H]1O [Amikacin, reference compound]
numbers of bacteria in biofilms [1]: 5.8±0.5×10^7
CFU/ml at 14 days [1]: 5.8 +/− 0.5 × 10^7*(1) CFU/ml
CFU/ml of macrophage lysate, 2 h [2]: 4.5 +/− 0.4 × 10^5 CFU/ml
CFU/ml of macrophage lysate, 4 days [2]: 4.8±0.5×10^4 CFU/ml and 4.8 +/− 0.5 × 10^4* (1) CFU/ml
CFU/mL, MAH 3388 (MAH 3388 biofilm): 5.4 +/− 0.9 × 10^7*(1) CFU/mL
CFU/mL, MAH 3393 (MAH 3393 biofilm): 5.2 +/− 0.6 × 10^7*(1) CFU/mL

CCCCCC(=O)O [Caproic acid]
lower capacity of biofilms to use the substrate compared with planktonic cultures (MAH104 biofilms): 4.27 fold
O.D.570 nm of sessile MAH104 (crystal violet, biofilm formation) (sessile MAH104 cells): 0.177±0.017
biofilm formation with 1% and 0.5% of fatty acid [3]: significant decrease
killing capacity of clarithromycin ([1]; established M. avium 104 biofilms, 72 hours, FIG. 4A-D): increase
CFU/ml at 14 days [1]: 6.4 +/− 0.2 × 10^6*(1) CFU/ml
CFU/ml of macrophage lysate, 2 h [2]: 3.1 +/− 0.4 × 10^5 CFU/ml
CFU/ml of macrophage lysate, 4 days [2]: 5.3 +/− 0.4 × 10^5* (1) CFU/ml

CC[C@H]1OC(=O)[C@H](C)[C@@H](O[C@H]2C[C@@](C)(OC)[C@@H](O)[C@H](C)O2)[C@H](C)[C@@H](O[C@@H]2O[C@H](C)C[C@H](N(C)C)[C@H]2O)[C@](C)(OC)C[C@@H](C)C(=O)[C@H](C)[C@@H](O)[C@]1(C)O [Clarithromycin, reference compound]
numbers of bacteria in biofilms [1]: 8.9±0.8×10^7
CFU/ml at 14 days [1]: 8.9 +/− 0.8 × 10^7*(1) CFU/ml
CFU/ml of macrophage lysate, 2 h [2]: 4.5 +/− 0.4 × 10^5 CFU/ml
CFU/ml of macrophage lysate, 4 days [2]: 3.9±0.3×10^4 CFU/ml and 3.9 +/− 0.3 × 10^4* (1) CFU/ml

COC(=O)C(C)=O [Methyl Pyruvate]
lower capacity of biofilms to use the substrate compared with planktonic cultures (MAH104 biofilms): 1.8 fold

CC(=O)C(=O)O [Pyruvic acid]
lower capacity of biofilms to use the substrate compared with planktonic cultures (MAH104 biofilms): 2.21 fold

O=C(O)CCCCCCCCC(=O)O [Sebacic acid]
planktonic O.D.590 nm ([4]; Biolog plate, end-point): 0.210±0.069
Biofilm O.D.590 nm (MAH104 biofilms; Biolog plate, end-point): 0.411±0.059

NC[C@H]1O[C@H](O[C@H]2[C@H](O)[C@@H](O[C@H]3O[C@H](CO)[C@@H](O)[C@H](N)[C@H]3O)[C@H](N)C[C@@H]2N)[C@H](N)C[C@@H]1O [tobramycin]
concentration in expectorated sputum (Mean) ([5]; 10 minutes after delivery of 300 mg by nebulizer): 1,237 μg/g of sputum
concentration in the lung epithelial fluid (induced sputum) ([5]; after 300 mg delivered by nebulizer): ~128 µg/g

CCC(O)C(=O)O (stereo not drawn) [α-Hydroxy Butyric acid]
metabolized by biofilm cultures (MAH104 biofilms): unable to metabolize

CCC(=O)C(=O)O [α-Keto-Butyric acid]
metabolized by biofilm cultures (MAH104 biofilms): unable to metabolize

polysorbate 20 [Tween 20]
Planktonic (metabolite used) [4]: +
Biofilm (metabolite used) (MAH104 biofilms): +
lower capacity of biofilms to use the substrate compared with planktonic cultures (MAH104 biofilms): 5.4 fold

polysorbate 40 [Tween 40]
Planktonic (metabolite used) [4]: +
Biofilm (metabolite used) (MAH104 biofilms): +
lower capacity of biofilms to use the substrate compared with planktonic cultures (MAH104 biofilms): 3.8 fold

polysorbate 80 [Tween 80]
Planktonic (metabolite used) [4]: +
Biofilm (metabolite used) (MAH104 biofilms): +
lower capacity of biofilms to use the substrate compared with planktonic cultures (MAH104 biofilms): 3.45 fold
